Measurements reported in PubChem BioAssay AID1963959 (Molecular Pharmacology Branch, DTP, NCI, 2024).
pIC50: −log10 of the molar value.

System: T-47D spheroids with HUVEC/MSC, viability
Experiment: Anticancer human tumor T-47D cell line growth inhibition [PI3K];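 further: spheroids exposed to agents for seven days before reading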;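 on viability, T/C: percent of DMSO vehicle control luminescence so 100% = untreated growth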
Conditions: for pIC50: curve of first compound; for viability, T/C: stronger effect = lower value
Method in brief: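 Spheroid viability read-out. Co-cultures contained the tumor line plus HUVEC and human MSCs. Each agent was paired with a PI3K inhibitor (inavolisib, alpelisib, duvelisib, copanlisib) across half-log dilutions starting at clinical Cmax, or at 10 microM when Cmax was unknown.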

SMILES: C=CC(=O)N1CCN(c2nc(=O)n(-c3c(C)ccnc3C(C)C)c3nc(-c4c(O)cccc4F)c(F)cc23)C(C)C1 (configuration not stated) + COc1c(OCCCN2CCOCC2)ccc2c3n(c(=NC(=O)c4cnc(N)nc4)nc12)CCN3
- pIC50 (second compound 0.00316 µM): < 5.00
- pIC50 (second compound 0.01 µM): < 5.00
- pIC50 (second compound 0.0316 µM): < 5.00
- pIC50 (second compound 0.1 µM): > 7.50
- pIC50 (second compound 0.316 µM): > 7.50
- pIC50 (second compound 1 µM): > 7.50
- viability, T/C (second compound 0.00316 µM, first compound 0.0316 µM): 100%
- viability, T/C (second compound 0.00316 µM, first compound 0.1 µM): 124%
- viability, T/C (second compound 0.00316 µM, first compound 0.316 µM): 106%
- viability, T/C (second compound 0.00316 µM, first compound 1 µM): 108%
- viability, T/C (second compound 0.00316 µM, first compound 3.16 µM): 101%
- viability, T/C (second compound 0.00316 µM, first compound 10 µM): 113%
- viability, T/C (second compound 0.01 µM, first compound 0.0316 µM): 101%
- viability, T/C (second compound 0.01 µM, first compound 0.1 µM): 91.6%
- viability, T/C (second compound 0.01 µM, first compound 0.316 µM): 96.1%
- viability, T/C (second compound 0.01 µM, first compound 1 µM): 91%
- viability, T/C (second compound 0.01 µM, first compound 3.16 µM): 138%
- viability, T/C (second compound 0.01 µM, first compound 10 µM): 104%
- viability, T/C (second compound 0.0316 µM, first compound 0.0316 µM): 84.5%
- viability, T/C (second compound 0.0316 µM, first compound 0.1 µM): 67.6%
- viability, T/C (second compound 0.0316 µM, first compound 0.316 µM): 74.6%
- viability, T/C (second compound 0.0316 µM, first compound 1 µM): 109%
- viability, T/C (second compound 0.0316 µM, first compound 3.16 µM): 95.6%
- viability, T/C (second compound 0.0316 µM, first compound 10 µM): 90.6%
- viability, T/C (second compound 0.1 µM, first compound 0.0316 µM): 46.2%
- viability, T/C (second compound 0.1 µM, first compound 0.1 µM): 51%
- viability, T/C (second compound 0.1 µM, first compound 0.316 µM): 41.1%
- viability, T/C (second compound 0.1 µM, first compound 1 µM): 45.1%
- viability, T/C (second compound 0.1 µM, first compound 3.16 µM): 48.3%
- viability, T/C (second compound 0.1 µM, first compound 10 µM): 53.1%
- viability, T/C (second compound 0.316 µM, first compound 0.0316 µM): 21.3%
- viability, T/C (second compound 0.316 µM, first compound 0.1 µM): 18.4%
- viability, T/C (second compound 0.316 µM, first compound 0.316 µM): 18.2%
- viability, T/C (second compound 0.316 µM, first compound 1 µM): 21%
- viability, T/C (second compound 0.316 µM, first compound 3.16 µM): 20.9%
- viability, T/C (second compound 0.316 µM, first compound 10 µM): 35%
- viability, T/C (second compound 1 µM, first compound 0.0316 µM): 6.05%
- viability, T/C (second compound 1 µM, first compound 0.1 µM): 6.58%
- viability, T/C (second compound 1 µM, first compound 0.316 µM): 5.84%
- viability, T/C (second compound 1 µM, first compound 1 µM): 9.25%
- viability, T/C (second compound 1 µM, first compound 3.16 µM): 11.6%
- viability, T/C (second compound 1 µM, first compound 10 µM): 19.2%
